Experimental data published in patent US20110136916A1, “6-SHOGAOL FOR USING IN A METHOD FOR THE TREATMENT OF LEUKEMIA” (China Pharmaceutical University, priority 2009, published 2011).
“Also recorded” adds a separate entry of the source. Where two headings read alike, the source gives them in different places.

How the values were obtained:
[1] = system: pulmonary carcinoma A549 cells; conditions: 48 hours; read-out: IC50 for inhibiting the proliferation of A549 cells; cited from earlier work
[2] = system: peripheral blood lymphocytes (PBMC) of clinical leukemia patients; assay: Annexin V/PI apoptosis of PBMC from leukemia patients; type: cell-based, human; conditions: 24 hours
Method: After application by the research group and approval by the Ethics Committee of the hospital, the leukemia patients (healthy volunteers) signed the informed consent and their fresh blood was collected and transferred into heparin anticoagulation tubes, then the same volume of serum free D-Hank buffer (preheated at 37° C.) was added to re-suspend the cells, and the suspension was added to the pre-laid human lymphocyte separating medium (preheated at 37° C.), and the volume ratio between the lymphocyte separating medium and the cell suspension should be no lower than 1:1, and the mixture was centrifuged at room temperature (20-30° C.) at 500×g by a horizontal centrifuge for 30 minutes. The upper layer plasma was removed and the white fog layer in the middle was carefully collected and transferred to 5 mL (or 1-2 times of the volume) PBS (or serum free buffer for cell culture), then it was centrifuged at 200×g or 1000 rpm for 10 minutes at room temperature (20-30° C.), and the supernatant was removed, and the obtained precipitation was the peripheral blood lymphocytes (PBMC). The cells were rinsed twice according to the above-mentioned operations at 500×g by the horizontal centrifuge for 10 minutes at room temperature (20-30° C.), subsequently the cells were collected and their cell vitality was detected by using dye exclusion method for living cells (Trypan blue).
The cells were added to a 24-well plate in 3×10^5 cells/mL/well and different concentrations of 6-shogaol (10 and 20 μM) for treatment for 24 hours after they were incubated for 24 hours. Negative control group (the group without drug) and the treatment group with 6-shogaol were set up for PBMCs from different individuals respectively. After the cells were treated with 6-shogaol for 24 hours, they were transferred into 10 mL glass centrifuge tubes and centrifuged at 500 rpm (or 100×g) for 5 minutes to remove the supernatant. The cells were then rinsed with 0.01 M PBS at 500 rpm (or 100×g) for 5 minutes twice. Subsequently, after adding binding solution and staining according to the directions for use of Annexin V/PI double staining kit (BD Company), flow cytometry analysis (Becton Dickinson FACScan Flow Cytometer) was carried out. The FACS data were analyzed by professional operators of the flow cytometer by using FLOWJO software (Tree Star, Calif.) software, the apoptotic rate was counted by the sum of early apoptosis and late apoptosis, and the results were shown in Table 4 and Table 5.

ddY line mice = conditions: cited from earlier work
[3] = system: human colon carcinoma COLO 205 cells; conditions: read-out: IC50 for inhibiting the growth of COLO 205 cells; cited from earlier work
[4] = system: normal human cell line LO-2; assay: MTT toxicity evaluation on normal cell line LO-2; type: cell-based; conditions: for growth inhibition of normal hepatic cell line LO-2: LO-2, 1-20 μM
Method: (§1) Cells in logarithmic growth phase were collected and then inoculated in 1˜2×10^4 cells/well in a 96-well plate respectively according to the sizes of cells and whether they attached to the wall, the cells were centrifuged and the supernatant was removed after growing for 24 hours, and then drug administration was carried out according to the groups as below: the drug group and the drug free group were set up for tumor cells (the concentrations ranged from 1˜20 μM), 5 or 6 duplicates were set for each group and the cells were incubated for 24 or 72 hours. The supernatant was removed and 100 μl serum free culture solution containing 0.5 mg/ml MTT (tetrazolium) was added for further incubation for 4 hours, subsequently 100 μl DMSO (dimethyl sulfoxide) was added and the plate was kept on the micro-shaker for 10 minutes, and the OD value was determined on a micro-plate reader at the wavelength of 570 nm. Evaluations on the toxicity were carried out on normal human cell line LO-2 and each test was repeated for three times.

[5] = system: human acute myelocytic leukemia cell U937; assay: MTT anti-proliferation, U937; type: cell-based; conditions: for IC50: U937, MTT, n = 3; for growth inhibition (activities of cells vs control): U937, 1-20 μM
Method: as §1

[6] = cited from earlier work

CCCCC/C=C/C(=O)CCc1ccc(O)c(OC)c1 [6-shogaol]
IC50 [1]: ~60 µM | induction of apoptosis of PBMC of leukemia patients (t-test) ([2]; 30 cases of leukemia patients, 10 and 20 μM): significantly induce the apoptosis | Apoptotic rate of 10 μM 6-shogaol ([2]; PBMC of patient P1, 10 μM): 38.5 ± 3.7a % | Apoptotic rate of 20 μM 6-shogaol ([2]; PBMC of patient P1, 20 μM): 56.9 ± 2.2a % | Apoptotic rate of 10 μM 6-shogaol ([2]; PBMC of patient P2, 10 μM): 27.6 ± 1.3a % | Apoptotic rate of 20 μM 6-shogaol ([2]; PBMC of patient P2, 20 μM): 50.1 ± 5.4a % | Apoptotic rate of 10 μM 6-shogaol ([2]; PBMC of patient P3, 10 μM): 47.9 ± 1.6a % | Apoptotic rate of 20 μM 6-shogaol ([2]; PBMC of patient P3, 20 μM): 72.9 ± 3.1a % | Apoptotic rate of 10 μM 6-shogaol ([2]; PBMC of patient P4, 10 μM): 35.7 ± 3.8a % | Apoptotic rate of 20 μM 6-shogaol ([2]; PBMC of patient P4, 20 μM): 69.7 ± 1.6a % | Apoptotic rate of 10 μM 6-shogaol ([2]; PBMC of patient P5, 10 μM): 40.5 ± 6.1a % | Apoptotic rate of 20 μM 6-shogaol ([2]; PBMC of patient P5, 20 μM): 61.9 ± 4.2a % | Apoptotic rate of 10 μM 6-shogaol ([2]; PBMC of patient P6, 10 μM): 29.3 ± 1.7a % | Apoptotic rate of 20 μM 6-shogaol ([2]; PBMC of patient P6, 20 μM): 52.7 ± 2.3a % | Apoptotic rate of 10 μM 6-shogaol ([2]; PBMC of patient P7, 10 μM): 44.6 ± 3.8a % | Apoptotic rate of 20 μM 6-shogaol ([2]; PBMC of patient P7, 20 μM): 75.9 ± 1.7a % | Apoptotic rate of 10 μM 6-shogaol ([2]; PBMC of patient P8, 10 μM): 31.3 ± 2.7a % | Apoptotic rate of 20 μM 6-shogaol ([2]; PBMC of patient P8, 20 μM): 64.7 ± 2.4a % | Apoptotic rate of 10 μM 6-shogaol ([2]; PBMC of patient P9, 10 μM): 27.5 ± 2.9a % | Apoptotic rate of 20 μM 6-shogaol ([2]; PBMC of patient P9, 20 μM): 44.8 ± 3.9a % | Apoptotic rate of 10 μM 6-shogaol ([2]; PBMC of patient P10, 10 μM): 42.4 ± 3.1a % | Apoptotic rate of 20 μM 6-shogaol ([2]; PBMC of patient P10, 20 μM): 73.5 ± 3.7a % | Apoptotic rate of 10 μM 6-shogaol ([2]; PBMC of patient P11, 10 μM): 29.7 ± 2.4a % | Apoptotic rate of 20 μM 6-shogaol ([2]; PBMC of patient P11, 20 μM): 50.1 ± 3.3ac % | Apoptotic rate of 10 μM 6-shogaol ([2]; PBMC of patient P12, 10 μM): 49.3 ± 4.1a % | Apoptotic rate of 20 μM 6-shogaol ([2]; PBMC of patient P12, 20 μM): 80.8 ± 5.1ac % | Apoptotic rate of 10 μM 6-shogaol ([2]; PBMC of patient P13, 10 μM): 55.9 ± 2.7a % | Apoptotic rate of 20 μM 6-shogaol ([2]; PBMC of patient P13, 20 μM): 82.9 ± 2.5ac % | Apoptotic rate of 10 μM 6-shogaol ([2]; PBMC of patient P14, 10 μM): 26.7 ± 1.9a % | Apoptotic rate of 20 μM 6-shogaol ([2]; PBMC of patient P14, 20 μM): 39.7 ± 2.6ac % | Apoptotic rate of 10 μM 6-shogaol ([2]; PBMC of patient P15, 10 μM): 34.5 ± 3.1a % | Apoptotic rate of 20 μM 6-shogaol ([2]; PBMC of patient P15, 20 μM): 47.9 ± 4.2ab % | Apoptotic rate of 10 μM 6-shogaol ([2]; PBMC of patient P16, 10 μM): 39.3 ± 2.3a % | Apoptotic rate of 20 μM 6-shogaol ([2]; PBMC of patient P16, 20 μM): 46.7 ± 1.6ab % | Apoptotic rate of 10 μM 6-shogaol ([2]; PBMC of patient P17, 10 μM): 44.6 ± 3.8a % | Apoptotic rate of 20 μM 6-shogaol ([2]; PBMC of patient P17, 20 μM): 55.9 ± 1.7ab % | Apoptotic rate of 10 μM 6-shogaol ([2]; PBMC of patient P18, 10 μM): 33.1 ± 3.7a % | Apoptotic rate of 20 μM 6-shogaol ([2]; PBMC of patient P18, 20 μM): 54.7 ± 2.6ac % | Apoptotic rate of 10 μM 6-shogaol ([2]; PBMC of patient P19, 10 μM): 37.9 ± 4.9a % | Apoptotic rate of 20 μM 6-shogaol ([2]; PBMC of patient P19, 20 μM): 51.8 ± 7.9ac % | Apoptotic rate of 10 μM 6-shogaol ([2]; PBMC of patient P20, 10 μM): 52.9 ± 2.7a % | Apoptotic rate of 20 μM 6-shogaol ([2]; PBMC of patient P20, 20 μM): 63.6 ± 1.2ab % | Apoptotic rate of 10 μM 6-shogaol ([2]; PBMC of patient P21, 10 μM): 31.5 ± 4.3a % | Apoptotic rate of 20 μM 6-shogaol ([2]; PBMC of patient P21, 20 μM): 44.5 ± 2.4ab % | Apoptotic rate of 10 μM 6-shogaol ([2]; PBMC of patient P22, 10 μM): 20.5 ± 3.1a % | Apoptotic rate of 20 μM 6-shogaol ([2]; PBMC of patient P22, 20 μM): 38.5 ± 2.1ac % | Apoptotic rate of 10 μM 6-shogaol ([2]; PBMC of patient P23, 10 μM): 36.2 ± 5.7a % | Apoptotic rate of 20 μM 6-shogaol ([2]; PBMC of patient P23, 20 μM): 67.1 ± 3.7ac % | Apoptotic rate of 10 μM 6-shogaol ([2]; PBMC of patient P24, 10 μM): 42.7 ± 2.4a % | Apoptotic rate of 20 μM 6-shogaol ([2]; PBMC of patient P24, 20 μM): 58.7 ± 3.9ac % | Apoptotic rate of 10 μM 6-shogaol ([2]; PBMC of patient P25, 10 μM): 47.8 ± 2.9a % | Apoptotic rate of 20 μM 6-shogaol ([2]; PBMC of patient P25, 20 μM): 69.1 ± 3.3ac % | Apoptotic rate of 10 μM 6-shogaol ([2]; PBMC of patient P26, 10 μM): 43.3 ± 4.9a % | Apoptotic rate of 20 μM 6-shogaol ([2]; PBMC of patient P26, 20 μM): 56.9 ± 5.2ac % | Apoptotic rate of 10 μM 6-shogaol ([2]; PBMC of patient P27, 10 μM): 30.9 ± 1.7a % | Apoptotic rate of 20 μM 6-shogaol ([2]; PBMC of patient P27, 20 μM): 47.6 ± 3.6ab % | Apoptotic rate of 10 μM 6-shogaol ([2]; PBMC of patient P28, 10 μM): 39.6 ± 2.2a % | Apoptotic rate of 20 μM 6-shogaol ([2]; PBMC of patient P28, 20 μM): 56.3 ± 3.8ac % | Apoptotic rate of 10 μM 6-shogaol ([2]; PBMC of patient P29, 10 μM): 33.7 ± 3.5a % | Apoptotic rate of 20 μM 6-shogaol ([2]; PBMC of patient P29, 20 μM): 42.4 ± 2.9ab % | Apoptotic rate of 10 μM 6-shogaol ([2]; PBMC of patient P30, 10 μM): 28.6 ± 2.9a % | Apoptotic rate of 20 μM 6-shogaol ([2]; PBMC of patient P30, 20 μM): 51.9 ± 4.2ac % | LD50 (ddY line mice; intraperitoneal injection): about 109.2 mg/kg | LD50 (ddY line mice; intravenous injection): about 50.9 mg/kg | LD50 (ddY line mice; oral administration): 687 mg/kg | IC50 [3]: > 60 µM | growth inhibition of normal hepatic cell line LO-2 ([4]; 24 hours): didn't inhibit the proliferation | growth inhibition of normal hepatic cell line LO-2 ([4]; 72 hours): didn't inhibit the proliferation | toxicity on normal hepatic cells LO-2 ([4]; summary statement): No toxic reaction was found; also recorded: low toxicity | IC50 ([5]; Homo sapiens, U-937, 24 h, 24 hours, read-out: Mean IC50 after 24 hours): < 10 µM | IC50 ([5]; Homo sapiens, U-937, 72 h, 72 hours, read-out: Mean IC50 after 72 hours): < 5 µM | growth inhibition (activities of cells vs control) ([5]; 24 hours, FIG. 4): significantly decreased | growth inhibition (activities of cells vs control) ([5]; 72 hours, FIG. 8): significantly decreased | IC50 ([5]; 24 hours, read-out: Mean IC50 after 24 hours): 7.63 ± 0.47 µM | IC50 ([5]; 72 hours, read-out: Mean IC50 after 72 hours): 4.93 ± 0.7 µM | solubility in ethanol ([6]; ethanol): soluble | solubility in water ([6]; water): insoluble
